How the values were obtained:
MAGL [1] = molecular target: T1, MAGL (Mus musculus (Mouse), UniProt O35678); experiment: In vitro competitive activity-based protein profiling (mouse brain membrane fraction or cell lysates), MAGL band; format: biochemical; conditions: mouse proteome; for inhibition at 1 µM: read-out: MAGL % Inh 1 μM (mouse); for IC50: competitive ABPP
Method: In Vitro Competitive Activity-Based Protein Profiling.
Proteomes (mouse brain membrane fraction or cell lysates) (50 μL, 1.0 mg/mL total protein concentration) were preincubated with varying concentrations of inhibitors at 37° C. After 30 min, FP—Rh (1.0 μL, 50 μM in DMSO) was added and the mixture was incubated for another 30 min at 37° C. Reactions were quenched with SDS loading buffer (50 μL-4×) and run on SDS-PAGE.

ABHD6 [2] = molecular target: T2, ABHD6 (Mus musculus (Mouse), UniProt Q8R2Y0); experiment: In vitro competitive activity-based protein profiling (mouse brain membrane fraction or cell lysates), ABHD6 band; format: biochemical; conditions: mouse proteome; for inhibition at 1 µM: read-out: ABHD6 % Inh 1 μM (mouse); for IC50: competitive ABPP
Procedure, shortened: (§1)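 Mouse proteome samples (brain membrane fraction or cell lysate, 1.0 mg/mL protein) were pretreated with varying inhibitor concentrations and subsequently probed with fluorophosphonate-rhodamine, each step lasting 30 min at 37° C. Labelled proteins were separated by SDS-PAGE, and band fluorescence was imaged and quantified.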

FAAH [3] = molecular target: T3, FAAH (Mus musculus (Mouse), UniProt O08914); experiment: In vitro competitive activity-based protein profiling (mouse brain membrane fraction or cell lysates), FAAH band; format: biochemical; conditions: mouse proteome; for inhibition at 1 µM: read-out: FAAH % Inh 1 μM (mouse); for IC50: competitive ABPP
Procedure, shortened: as §1

MAGL [4] = molecular target: T1, MAGL; experiment: Mouse brain proteomes from inhibitor treated mice (oral gavage, sacrificed 4 h after administration, ABPP analysis); format: in vivo, mouse (C57Bl/6J); conditions: 5 mg/kg oral gavage
Procedure, shortened: (§2)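 Values give % inhibition in brain after a 5 mg/kg oral gavage dose to wild-type C57Bl/6J mice, with vehicle e.g. PEG400/Ethanol/PBS (7/2/1). Animals were killed 4 h post-dose and brain proteome activity was read by ABPP.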

FAAH [5] = molecular target: T3, FAAH; experiment: Mouse brain proteomes from inhibitor treated mice (oral gavage, sacrificed 4 h after administration, ABPP analysis), FAAH; format: in vivo, mouse (C57Bl/6J); conditions: 5 mg/kg oral gavage
Procedure, shortened: as §2

ABHD6 [6] = molecular target: T2, ABHD6; experiment: Mouse brain proteomes from inhibitor treated mice (oral gavage, sacrificed 4 h after administration, ABPP analysis), ABHD6; format: in vivo, mouse (C57Bl/6J); conditions: 5 mg/kg oral gavage
Procedure, shortened: as §2

T1 sequence (O35678 whole entry): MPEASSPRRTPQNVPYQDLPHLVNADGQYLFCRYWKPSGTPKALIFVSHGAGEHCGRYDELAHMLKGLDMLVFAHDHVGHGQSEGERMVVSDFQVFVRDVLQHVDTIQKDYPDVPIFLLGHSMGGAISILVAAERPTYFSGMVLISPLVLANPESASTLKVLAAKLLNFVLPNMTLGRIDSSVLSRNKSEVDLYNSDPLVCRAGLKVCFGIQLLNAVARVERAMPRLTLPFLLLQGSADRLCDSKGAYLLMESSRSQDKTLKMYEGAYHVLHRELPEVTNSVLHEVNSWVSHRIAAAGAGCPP
T3 sequence (O08914 whole entry): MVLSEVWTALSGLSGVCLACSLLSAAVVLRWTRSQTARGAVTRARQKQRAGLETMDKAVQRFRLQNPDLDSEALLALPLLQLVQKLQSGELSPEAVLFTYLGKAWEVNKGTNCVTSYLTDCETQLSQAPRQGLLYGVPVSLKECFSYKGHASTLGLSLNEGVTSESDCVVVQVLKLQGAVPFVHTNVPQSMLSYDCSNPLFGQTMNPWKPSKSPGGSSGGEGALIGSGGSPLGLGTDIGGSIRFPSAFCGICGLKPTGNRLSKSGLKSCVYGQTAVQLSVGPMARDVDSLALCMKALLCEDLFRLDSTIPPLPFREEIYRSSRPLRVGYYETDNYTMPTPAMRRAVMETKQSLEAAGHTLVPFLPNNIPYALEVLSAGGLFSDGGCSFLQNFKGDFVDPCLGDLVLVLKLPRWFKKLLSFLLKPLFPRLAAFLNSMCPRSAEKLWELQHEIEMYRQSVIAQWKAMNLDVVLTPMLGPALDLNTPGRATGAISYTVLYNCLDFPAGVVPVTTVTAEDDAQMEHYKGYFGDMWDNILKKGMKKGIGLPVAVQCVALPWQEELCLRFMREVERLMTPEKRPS
T2 sequence (Q8R2Y0 whole entry): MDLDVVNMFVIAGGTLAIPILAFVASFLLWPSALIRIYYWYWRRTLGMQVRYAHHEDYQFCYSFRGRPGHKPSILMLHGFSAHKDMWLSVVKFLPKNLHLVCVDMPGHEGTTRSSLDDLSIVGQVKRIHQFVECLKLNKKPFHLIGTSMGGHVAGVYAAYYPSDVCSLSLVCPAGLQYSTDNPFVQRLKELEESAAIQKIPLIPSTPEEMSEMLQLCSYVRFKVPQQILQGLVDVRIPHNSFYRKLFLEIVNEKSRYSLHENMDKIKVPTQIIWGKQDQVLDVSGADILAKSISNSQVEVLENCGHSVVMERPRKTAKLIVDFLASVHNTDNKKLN

| inhibition at 1 µM (MAGL [1]) [%] | IC50 (MAGL [1]) [nM] | inhibition at 1 µM (ABHD6 [2]) [%] | IC50 (ABHD6 [2]) [nM] | inhibition at 1 µM (FAAH [3]) [%] | IC50 (FAAH [3]) [nM] | FAAH % Inh 5 mg/kg (mouse) (FAAH [5]) | ABHD6 % Inh 5 mg/kg (mouse) (ABHD6 [6]) | Structure (SMILES) | MAGL % Inh 5 mg/kg (mouse) (MAGL [4]) |
| --- | --- | --- | --- | --- | --- | --- | --- | --- | --- |
| > 75 | < 100 | < 25 | > 1000 | < 25 | > 1000 | # (# is <25%) | # (# is <25%) | O=C(OC(C(F)(F)F)C(F)(F)F)N1CCC2(CCCN2Cc2ccc(C(F)(F)F)cc2N2CCCC2)CC1 [Example 66, 1,1,1,3,3,3-Hexafluoropropan-2-yl 1-(2-(pyrrolidin-1-yl)-4-(trifluoromethyl)benzyl)-1,8-diazaspiro[4.5]decane-8-carboxylate] | ## (## is equal to or greater than 25% but less than 75%) |
| > 75 | < 100 | < 25 | > 1000 | < 25 | > 1000 | # (# is <25%) | # (# is <25%) | O=C(OC(C(F)(F)F)C(F)(F)F)N1CCC2(CCCN2Cc2ccc(C(F)(F)F)cc2N2CCOCC2)CC1 [Example 67, 1,1,1,3,3,3-Hexafluoropropan-2-yl 1-(2-morpholino-4-(trifluoromethyl)benzyl)-1,8-diazaspiro[4.5]decane-8-carboxylate] | ### (### is ≥75%) |
| > 75 | < 100 | < 25 | > 1000 | < 25 | > 1000 | # (# is <25%) | # (# is <25%) | O=C(OC(C(F)(F)F)C(F)(F)F)N1CCC2(CCN(Cc3ccc(C(F)(F)F)cc3N3CCCC3)C2)CC1 [Example 72, 1,1,1,3,3,3-Hexafluoropropan-2-yl 2-(2-(pyrrolidin-1-yl)-4-(trifluoromethyl)benzyl)-2,8-diazaspiro[4.5]decane-8-carboxylate] | ## (## is equal to or greater than 25% but less than 75%) |
| > 75 | < 100 | < 25 | > 1000 | < 25 | > 1000 | # (# is <25%) | # (# is <25%) | O=C(OC(C(F)(F)F)C(F)(F)F)N1CCC2(CCCN2Cc2ccc(C(F)(F)F)cc2N2CC3CCC(C2)O3)CC1 [Example 73, 1,1,1,3,3,3-Hexafluoropropan-2-yl 1-(2-(8-oxa-3-azabicyclo[3.2.1]octan-3-yl)-4-(trifluoromethyl)benzyl)-1,8-diazaspiro[4.5]decane-8-carboxylate] | ## (## is equal to or greater than 25% but less than 75%) |

| Structure (SMILES) | inhibition at 1 µM (MAGL [1]) [%] | IC50 (MAGL [1]) [nM] | inhibition at 1 µM (ABHD6 [2]) [%] | IC50 (ABHD6 [2]) [nM] | inhibition at 1 µM (FAAH [3]) [%] | IC50 (FAAH [3]) [nM] | FAAH % Inh 5 mg/kg (mouse) (FAAH [5]) | ABHD6 % Inh 5 mg/kg (mouse) (ABHD6 [6]) | MAGL % Inh 5 mg/kg (mouse) (MAGL [4]) |
| --- | --- | --- | --- | --- | --- | --- | --- | --- | --- |
| O=C(OC(C(F)(F)F)C(F)(F)F)N1CCC2(CCN(Cc3cccc(Cl)c3N3CCC(F)CC3)C2)CC1 [Example 65, 1,1,1,3,3,3-Hexafluoropropan-2-yl 2-(3-chloro-2-(4-fluoropiperidin-1-yl)benzyl)-2,8-diazaspiro[4.5]decane-8-carboxylate] | > 75 | < 100 | 25 to 75 | > 1000 | < 25 | > 1000 | # (# is <25%) | ## (## is equal to or greater than 25% but less than 75%) | ## (## is equal to or greater than 25% but less than 75%) |
| CCN1CCCc2cccc(CN3CCC4(CCN(C(=O)OC(C(F)(F)F)C(F)(F)F)CC4)C3)c21 [Example 71, 1,1,1,3,3,3-Hexafluoropropan-2-yl 2-((1-ethyl-1,2,3,4-tetrahydroquinolin-8-yl)methyl)-2,8-diazaspiro[4.5]decane-8-carboxylate] | > 75 | < 100 | 25 to 75 | > 1000 | < 25 | > 1000 | # (# is <25%) | ## (## is equal to or greater than 25% but less than 75%) | ### (### is ≥75%) |
